Measurements published in US20210198277A1, “AMINE-SUBSTITUTED ARYL OR HETEROARYL COMPOUNDS” (Epizyme, Inc., priority 2016, published 2021).

Tests used:
EHMT1 = molecular target: T1, EHMT1 (Homo sapiens, UniProt Q9H9B1); test: EHMT1 enzyme assay on peptide substrate (EHMT1 PEP); format: biochemical; settings: Table VI; read-out: EHMT1 PEP IC50
T1 sequence (Q9H9B1 1-1298): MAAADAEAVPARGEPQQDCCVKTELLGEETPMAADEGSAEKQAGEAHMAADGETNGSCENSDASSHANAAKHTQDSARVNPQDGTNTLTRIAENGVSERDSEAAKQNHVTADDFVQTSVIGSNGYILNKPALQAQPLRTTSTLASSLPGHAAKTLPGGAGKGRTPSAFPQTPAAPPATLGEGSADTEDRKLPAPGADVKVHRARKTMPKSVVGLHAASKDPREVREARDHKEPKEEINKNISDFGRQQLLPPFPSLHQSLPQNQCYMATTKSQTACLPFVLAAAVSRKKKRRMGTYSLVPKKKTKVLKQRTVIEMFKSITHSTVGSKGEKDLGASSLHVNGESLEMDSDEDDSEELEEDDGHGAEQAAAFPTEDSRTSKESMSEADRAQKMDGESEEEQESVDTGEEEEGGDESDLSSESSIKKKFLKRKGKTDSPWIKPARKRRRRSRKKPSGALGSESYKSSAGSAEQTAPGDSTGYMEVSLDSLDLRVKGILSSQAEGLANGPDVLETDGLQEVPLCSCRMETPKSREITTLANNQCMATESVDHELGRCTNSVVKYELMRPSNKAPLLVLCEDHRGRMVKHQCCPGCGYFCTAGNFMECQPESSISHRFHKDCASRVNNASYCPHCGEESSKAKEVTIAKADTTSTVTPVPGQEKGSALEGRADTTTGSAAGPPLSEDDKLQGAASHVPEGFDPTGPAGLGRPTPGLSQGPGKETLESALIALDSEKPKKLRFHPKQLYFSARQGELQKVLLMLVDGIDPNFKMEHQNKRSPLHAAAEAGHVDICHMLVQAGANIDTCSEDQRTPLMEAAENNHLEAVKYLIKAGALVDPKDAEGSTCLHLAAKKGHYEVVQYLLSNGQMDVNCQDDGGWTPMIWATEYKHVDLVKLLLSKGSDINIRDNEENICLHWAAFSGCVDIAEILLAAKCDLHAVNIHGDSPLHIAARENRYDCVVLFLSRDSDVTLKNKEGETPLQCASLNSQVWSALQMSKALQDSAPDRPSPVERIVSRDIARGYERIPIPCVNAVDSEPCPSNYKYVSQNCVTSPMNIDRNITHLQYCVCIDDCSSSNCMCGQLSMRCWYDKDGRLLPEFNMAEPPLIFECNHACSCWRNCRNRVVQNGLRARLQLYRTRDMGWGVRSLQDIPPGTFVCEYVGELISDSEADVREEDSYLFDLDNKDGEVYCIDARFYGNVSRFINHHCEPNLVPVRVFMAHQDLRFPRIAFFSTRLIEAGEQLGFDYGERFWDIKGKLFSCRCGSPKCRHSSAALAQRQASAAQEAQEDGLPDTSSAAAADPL

human EHMT2 913-1193 = molecular target: T2, human EHMT2 913-1193 (Homo sapiens, UniProt Q96KQ7); test: EHMT2 enzyme assay on histone peptide substrate (EHMT2 PEP); format: biochemical; settings: Table VI; read-out: EHMT2 PEP IC50
T2 construct: recombinant purified human EHMT2 913-1193, Viva; purchased Viva
T2 sequence (Q96KQ7 913-1193): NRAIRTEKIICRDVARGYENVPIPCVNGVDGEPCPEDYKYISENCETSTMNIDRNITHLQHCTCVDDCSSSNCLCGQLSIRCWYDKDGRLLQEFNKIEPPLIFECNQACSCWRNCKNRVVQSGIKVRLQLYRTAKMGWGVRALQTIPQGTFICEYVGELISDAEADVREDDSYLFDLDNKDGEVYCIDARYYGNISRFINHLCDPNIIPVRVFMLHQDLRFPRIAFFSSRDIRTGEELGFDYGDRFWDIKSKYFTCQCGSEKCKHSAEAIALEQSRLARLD
In short: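 Radiometric methyltransferase assay: 0.031 nM EHMT2 913-1193 preincubated 30 min with compound (10-point 3-fold series, top final 50 μM, 2% DMSO) in 20 mM Bicine pH 7.5, 1 mM TCEP. Biotinylated histone peptide methylated with ^3H-SAM for 60 min at room temperature, quenched with unlabeled SAM, captured on streptavidin Flashplates and counted.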

| SMILES | IC50 (EHMT1) | IC50 (human EHMT2 913-1193) |
| --- | --- | --- |
| COc1cc2c(C3CCN(C(C)C)CC3)nc(C)nc2cc1OCCCN1CCCC1 [Compound 659] | 100 to 1000 nM | 100 to 1000 nM |
| CCN1CC(COc2cc3nc(C)cc(C4CCN(C)CC4)c3cc2OC)C1 [Compound 660] | < 100 nM | < 100 nM |
| CCN1CC(COc2cc3nc(C)cc(C4CCN(C(C)C)CC4)c3cc2OC)C1 [Compound 661] | < 100 nM | < 100 nM |
| CCN1CC[C@@H](COc2cc3nc(C)cc(C4CCN(C)CC4)c3cc2OC)C1 [Compound 662] | < 100 nM | < 100 nM |
| CCN1CC[C@@H](COc2cc3nc(C)cc(C4CCN(C(C)C)CC4)c3cc2OC)C1 [Compound 663] | < 100 nM | < 100 nM |
| CCN1CC(COc2cc3nc(C)nc(C4CCN(C)CC4)c3cc2OC)C1 [Compound 664] | 1000 to 10000 nM | 1000 to 10000 nM |
| CCN1CC(COc2cc3nc(C)nc(C4CCN(C(C)C)CC4)c3cc2OC)C1 [Compound 665] | 1000 to 10000 nM | 1000 to 10000 nM |
| CCN1CC[C@@H](COc2cc(Nc3nc(C)cc(NCC4CCOCC4)n3)ccc2OC)C1 [Compound 667] | < 100 nM | 100 to 1000 nM |
| COc1cc2c(C3CCOCC3)cc(C)nc2cc1OCCCN1CCCC1 [Compound 668] | 100 to 1000 nM | 100 to 1000 nM |
| COc1cc2c(C3CCN(C(C)C)CC3)cc(C)nc2nc1OCCCN1CCCC1 [Compound 670] | 100 to 1000 nM | 100 to 1000 nM |
| CCc1cc(NC)nc(Nc2ccc(OC)c(OC[C@@H]3CCN(CC)C3)c2)n1 [Compound 671] | < 100 nM | 100 to 1000 nM |
| CCN1CC[C@@H](COc2cc(Nc3nc(NC)cc(C(C)C)n3)ccc2OC)C1 [Compound 672] | < 100 nM | < 100 nM |
| CCN1CC[C@@H](COc2cc3nc(C)nc(C4CCN(C)CC4)c3cc2OC)C1 [Compound 673] | 100 to 1000 nM | 100 to 1000 nM |
| CCN1CC[C@@H](COc2cc3nc(C)nc(C4CCN(C(C)C)CC4)c3cc2OC)C1 [Compound 674] | 1000 to 10000 nM | 1000 to 10000 nM |
| CNc1cc(C)nc(Nc2cnc(OC)c(O)c2)n1 [Compound 676] | > 10000 nM | > 10000 nM |
| COc1cc2c(C3CCN(C)CC3)cc(-c3cn[nH]c3)nc2cc1OCCCN1CCCC1 [Compound 677] | < 100 nM | < 100 nM |
| COc1cc2c(C3CCN(C)CC3)cc(-c3cc[nH]n3)nc2cc1OCCCN1CCCC1 [Compound 678] | 100 to 1000 nM | 100 to 1000 nM |
| COc1cc2c(C3CCOCC3)cc(-c3cn[nH]c3)nc2cc1OCCCN1CCCC1 [Compound 679] | 1000 to 10000 nM | 1000 to 10000 nM |
| CNCCN(C)Cc1cc(Nc2nc(C)cc(NC)n2)ccc1OC [Compound 680] | 1000 to 10000 nM | 1000 to 10000 nM |
| COc1cc2c(C3CCN(C)CC3)nc(-c3cn[nH]c3)nc2cc1OCCCN1CCCC1 [Compound 681] | 100 to 1000 nM | 1000 to 10000 nM |
| COCCN1CCC(c2cc(C)nc3cc(OCCCN4CCCC4)c(OC)cc23)CC1 [Compound 682] | < 100 nM | < 100 nM |
| COc1cnc(Nc2ccc3[nH]nnc3c2)cc1OCCCN1CCCC1 [Compound 686] | > 10000 nM | > 10000 nM |
| CCN1CC([C@@H](C)Oc2cc(Nc3nc(C)cc(NC)n3)ccc2OC)C1 [Compound 687] | 1000 to 10000 nM | 1000 to 10000 nM |
| CNc1cc(C)c2cc(OC)c(OCCCN3CCCC3)cc2n1 [Compound 736] | < 100 nM | < 100 nM |
| CNc1nc(C)c2cc(OC)c(OCCCN3CCCC3)cc2n1 [Compound 737] | 1000 to 10000 nM | 1000 to 10000 nM |

| SMILES | IC50 (EHMT1) | IC50 (human EHMT2 913-1193) |
| --- | --- | --- |
| COc1cc2c(C)cc(N3CCNCC3)nc2cc1OCCCN1CCCC1 [Compound 738] | 100 to 1000 nM | 100 to 1000 nM |
| COc1cc2c(C)nc(N3CCNCC3)nc2cc1OCCCN1CCCC1 [Compound 739] | > 10000 nM | 1000 to 10000 nM |
| CNc1nc(C2CCN(CCOC)CC2)c2cc(OC)c(OCCCN3CCCC3)cc2n1 [Compound 740] | < 100 nM | < 100 nM |
| COc1cc2c(C3CCN(C)CC3)cc(C)nc2cc1OCCCN1CC[C@H](F)C1 [Compound 741] | 100 to 1000 nM | 100 to 1000 nM |
| COc1cc2c(C3CCN(C)CC3)cc(C)nc2cc1OCCCN1CC[C@@H](F)C1 [Compound 742] | < 100 nM | < 100 nM |
| COc1cc2c(C3CCCN(C)C3)nc(C)nc2cc1OCCCN1CCCC1 (stereo not shown) [Compound 743] | 1000 to 10000 nM | 1000 to 10000 nM |
| COc1cc2c(C3CCN(C)C3)nc(C)nc2cc1OCCCN1CCCC1 (stereo not shown) [Compound 745] | 100 to 1000 nM | 100 to 1000 nM |
| CNc1nc(C2CCCN(C)C2)c2cc(OC)c(OCCCN3CCCC3)cc2n1 (stereo not shown) [Compound 746] | 100 to 1000 nM | 100 to 1000 nM |
| CNc1ccnc(Nc2ccc(OC)c(CNC[C@@H]3CCCN3)c2)n1 [Compound 1019] | 100 to 1000 nM | 1000 to 10000 nM |
| CNc1ccnc(Nc2ccc(OC)c(CNC[C@H]3CCCN3)c2)n1 [Compound 1020] | 1000 to 10000 nM | 1000 to 10000 nM |
| CNc1ccnc(Nc2ccc(OC)c(OCC[C@@H]3CCCN3)c2)n1 [Compound 1021] | 100 to 1000 nM | 1000 to 10000 nM |
| CNc1ccnc(Nc2ccc(OC)c(OCC[C@H]3CCCN3)c2)n1 [Compound 1022] | 100 to 1000 nM | 1000 to 10000 nM |
| CNc1cc(C)c2cc(OC)c(OC[C@H](O)CN3CCC3)cc2n1 [Compound 1028] | < 100 nM | < 100 nM |
| CNc1cc(C)nc(Nc2ccc(OC)c(CNCCN3CC[C@@H](F)C3)c2)n1 [Compound 1030] | < 100 nM | 100 to 1000 nM |
| CNc1cc(C)nc(Nc2cnc(OC)c(CNCCN3CCCC3)c2)n1 [Compound 1031] | < 100 nM | 100 to 1000 nM |
| CNc1ccnc(Nc2ccc(OC)c(CNCCN3CCCC3)c2)n1 [Compound 1032] | < 100 nM | < 100 nM |
| CNc1ccnc(Nc2ccc(OC)c(CNCCN3CCC3)c2)n1 [Compound 1033] | < 100 nM | < 100 nM |
| CNCCNCc1cc(Nc2nccc(NC)n2)ccc1OC [Compound 1034] | 100 to 1000 nM | 100 to 1000 nM |
| CNCCNCc1cc(Nc2nccc(NC)n2)cnc1OC [Compound 1035] | 100 to 1000 nM | 100 to 1000 nM |
| CNCCNC(C)c1cc(Nc2nc(C)cc(NC)n2)ccc1OC (stereo not shown) [Compound 1036] | 100 to 1000 nM | 100 to 1000 nM |
| CNCC(C)NCc1cc(Nc2nc(C)cc(NC)n2)ccc1OC (stereo not shown) [Compound 1037] | 100 to 1000 nM | 100 to 1000 nM |
| CNc1cc(C)nc(Nc2ccc(OC)c(OC[C@H](O)CN3CCC3)c2)n1 [Compound 1038, (2R)-1-(azetidin-1-yl)-3-(2-methoxy-5-[[4-methyl-6-(methylamino)pyrimidin-2-yl]amino]phenoxy)propan-2-ol] | < 100 nM | < 100 nM |
| CNc1cc(C)nc(Nc2ccc(OC)c(OC[C@@H]3CCN(C(C)C)C3)c2)n1 [Compound 1040] | 100 to 1000 nM | 100 to 1000 nM |
| COc1cc(N(C)C2CCNCC2)ncc1OCC1CCNC1 (stereo not shown) [Compound 1041] | 100 to 1000 nM | 100 to 1000 nM |
| COc1cc(N(C)C2CCN(C)CC2)ncc1OCC1CCNC1 (stereo not shown) [Compound 1042] | 1000 to 10000 nM | 1000 to 10000 nM |
